{"source": "paper PMC9950073", "about": "“Alleviation of arthritis through prevention of neutrophil extracellular traps by an orally available inhibitor of protein arginine deiminase 4” (Scientific Reports, 2023)", "tested_on": "collagen induced arthritis", "experiment": "Collagen induced arthritis model in DBA/1 mice", "type": "in vivo", "settings": "Dexamethasone dose not given; for clinical score: JBI-589 50 mg/kg po BID day 0-45; for clinical score / bone erosion (histopathology) / joint inflammation (histopathology) / pannus formation (histopathology): Etanercept 25 mg/kg IP day 31–45"}
{"molecule": "C[C@@H]1C[C@H]2[C@@H]3CCC4=CC(=O)C=C[C@]4(C)[C@@]3(F)[C@@H](O)C[C@]2(C)[C@@]1(O)C(=O)CO", "note": "[Dexamethasone]", "values": [{"measurement": "clinical score", "result": "strong inhibition"}, {"measurement": "bone erosion (histopathology)", "setting": "JBI-589 50 mg/kg po BID", "result": "significantly decreased"}, {"measurement": "joint inflammation (histopathology)", "setting": "JBI-589 50 mg/kg po BID", "result": "significantly decreased"}, {"measurement": "pannus formation (histopathology)", "setting": "JBI-589 50 mg/kg po BID", "result": "significantly decreased"}, {"measurement": "spleen weight", "setting": "day 45, JBI-589 50 mg/kg po BID", "result": "stronger reduction"}, {"measurement": "body weight", "setting": "end of study, JBI-589 50 mg/kg po BID", "result": "stronger reduction"}]}
{"molecule": "Etanercept", "values": [{"measurement": "clinical score", "result": "comparable inhibition"}, {"measurement": "bone erosion (histopathology)", "setting": "JBI-589 50 mg/kg po BID", "result": "no appreciable effect"}, {"measurement": "joint inflammation (histopathology)", "setting": "JBI-589 50 mg/kg po BID", "result": "no appreciable effect"}, {"measurement": "pannus formation (histopathology)", "setting": "JBI-589 50 mg/kg po BID", "result": "no appreciable effect"}]}
